Assays:
Orf2 [1] = target: T1, Orf2 (Streptomyces tendae, UniProt A0ABX5ZPB3, S134A); experiment: absorbance at […] nm, activity assay; type: biochemical; conditions: 50 mM imidazole pH 7.5, 40 °C; substrate of the standard assay, not named again for the mutants
T1 construct: gene F3L20_11885; full-length orf2 (744 bp) in pET30a(+), His-tagged (mutants in pET28a), E. coli BL21(DE3), Ni-NTA

Orf2 [2] = target: T2, Orf2 (Streptomyces tendae, UniProt A0ABX5ZPB3, H170A); experiment: absorbance at […] nm, activity assay; type: biochemical; conditions: 50 mM imidazole pH 7.5, 40 °C; substrate of the standard assay, not named again for the mutants
T2 construct: gene F3L20_11885; full-length orf2 (744 bp) in pET30a(+), His-tagged (mutants in pET28a), E. coli BL21(DE3), Ni-NTA

Orf2 [3] = target: T3, Orf2 (Streptomyces tendae, UniProt A0ABX5ZPB3, D198A); experiment: absorbance at […] nm, activity assay; type: biochemical; conditions: 50 mM imidazole pH 7.5, 40 °C; substrate of the standard assay, not named again for the mutants
T3 construct: gene F3L20_11885; full-length orf2 (744 bp) in pET30a(+), His-tagged (mutants in pET28a), E. coli BL21(DE3), Ni-NTA

Orf2 [4] = target: T4, Orf2 (Streptomyces tendae, UniProt A0ABX5ZPB3, D147A); experiment: absorbance at […] nm, activity assay; type: biochemical; conditions: 50 mM imidazole pH 7.5, 40 °C; substrate of the standard assay, not named again for the mutants
T4 construct: gene F3L20_11885; full-length orf2 (744 bp) in pET30a(+), His-tagged (mutants in pET28a), E. coli BL21(DE3), Ni-NTA

purified protein = substrate: N[C@@H](CC(=O)O)C(=O)Nc1ccc([N+](=O)[O-])cc1; experiment: purified protein; type: biochemical, Streptomyces tendae; conditions: 50 mM imidazole pH 7.5, 40 °C, 10 min, substrate 3.91-500 μM, hydrolysis of chromogenic substrate

T1 sequence (A0ABX5ZPB3 entry or part of it S134A): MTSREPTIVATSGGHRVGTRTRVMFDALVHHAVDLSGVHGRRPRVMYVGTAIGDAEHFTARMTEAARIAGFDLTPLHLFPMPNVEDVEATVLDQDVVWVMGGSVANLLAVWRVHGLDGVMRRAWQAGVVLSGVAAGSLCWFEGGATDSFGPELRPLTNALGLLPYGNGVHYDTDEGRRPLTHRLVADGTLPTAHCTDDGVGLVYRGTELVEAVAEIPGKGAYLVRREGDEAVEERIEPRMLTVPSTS
T4 sequence (A0ABX5ZPB3 entry or part of it D147A): as the sequence (A0ABX5ZPB3 entry or part of it S134A) above, with A134S, D147A counted along it
T3 sequence (A0ABX5ZPB3 entry or part of it D198A): as the sequence (A0ABX5ZPB3 entry or part of it S134A) above, with A134S, D198A counted along it
T2 sequence (A0ABX5ZPB3 entry or part of it H170A): as the sequence (A0ABX5ZPB3 entry or part of it S134A) above, with A134S, H170A counted along it

Molecule | absorbance at 405 nm, activity assay (Orf2 [1]) | absorbance at 405 nm, activity assay (Orf2 [2]) | absorbance at 405 nm, activity assay (Orf2 [3]) | absorbance at 405 nm, activity assay (Orf2 [4]) | Km (purified protein) [µM] | kcat (purified protein) [s⁻¹]
N[C@@H](CC(=O)O)C(=O)Nc1ccc([N+](=O)[O-])cc1 [Asp-ρNA] | all of these mutant proteins lost their activity (data not shown) | all of these mutant proteins lost their activity (data not shown) | all of these mutant proteins lost their activity (data not shown) | all of these mutant proteins lost their activity (data not shown) |  | 
Orf2 (Streptomyces tendae) (protein, full-length orf2 (744 bp) in pET30a(+), His-tagged (mutants in pET28a), E. coli BL21(DE3), Ni-NTA) MTSREPTIVATSGGHRVGTRTRVMFDALVHHAVDLSGVHGRRPRVMYVGTAIGDAEHFTARMTEAARIAGFDLTPLHLFPMPNVEDVEATVLDQDVVWVMGGSVANLLAVWRVHGLDGVMRRAWQAGVVLSGVSAGSLCWFEGGATDSFGPELRPLTNALGLLPYGNGVHYDTDEGRRPLTHRLVADGTLPTAHCTDDGVGLVYRGTELVEAVAEIPGKGAYLVRREGDEAVEERIEPRMLTVPSTS |  |  |  |  | 1709 | 5.628

Reference: paper PMC11078827, “Characterization and functional evidence for Orf2 of Streptomyces sp. 139 as a novel dipeptidase E” (Applied Microbiology and Biotechnology, 2024)
